In patent US12303591B2, “Tumescent infiltration drug delivery of high subcutaneous drug concentrations with prolonged local and systemic effects and minimal local or systemic toxicity” (priority 2015, dated 2025):
≈ marks a conversion by molar mass, not a printed value. Where “and” joins values, the source holds several entries; their conditions need not be identical. Identical values can stand only once. Like-named read-outs stand apart in the source and are kept apart here.

Key:
[1] = Safety of tumescent drug delivery: subcutaneous infiltration of tumescent acyclovir and gentamicin; type: in vivo, human
Herpes zoster = conditions: without repeat dosing
clinical = conditions: human, in vivo
[2] = tested on: Staphyloccus aureus (MRSA) ATCC 33592; test: Minimum Inhibitory Concentration (MIC) vs MRSA; conditions: Staphylococcus aureus
[3] = Adverse effects / tissue toxicity after subcutaneous tumescent infiltration (TAD trial)
Excerpt: At the time when each sample of TISF was obtained, patients were examined and questioned about signs and symptoms of subcutaneous tissue toxicity including unusual soreness, tenderness, discoloration, swelling at sites of subcutaneous tumescent infiltration. […] One week after TAD patients were questioned by telephone about any signs and symptoms of subcutaneous tissue toxicity at the sites of TAD.

[4] = tested on: Staphyloccus aureus (MRSA) ATCC 33592; test: Minimum Bactericidal Concentration (MBC) vs MRSA; type: cell-based, Staphylococcus aureus
Excerpt: Determinations of MBC followed the method described in “Report on the Working Party on Antibiotic Sensitivity Testing of the British Society of Antimicrobial Chemotherapy: A Guide to Sensitivity Testing.”

platelet aggregation = conditions: cited from earlier work
[5] = routine injection; cited from earlier work
platelet function = test: Bleeding time and bleeding area before and after tumescent lidocaine exposure; type: in vivo, human
Description: The skin of the left and right thigh of a subject is cleaned and allowed to dry. […] Simultaneous 4 mm deep puncture wounds are made to the same area of the left and right thighs with disposable lancets. The puncture sites are blotted with filter paper every 30 seconds, until bleeding stops and the bleeding time for each thigh is recorded. The bleeding times of the left and right thigh are compared to determine if administration of TLAnti increases bleeding time. Normal bleeding time measured by the Duke method is 1 to 3 minutes.
In a preliminary experiment, bleeding time and bleeding area were measured in a patient before and after tumescent lidocaine exposure. […] In contrast, there was a 40% increase in Average Bleeding Area (BA). Bleeding Area (BA) was a more sensitive and a more specific test for platelet function compared to Bleeding Time (BT). […] In other words, TAD may reduce the risk of both post-operative surgical site infection and post-operative thromboembolism.

[6] = 28 mg/kg of tumescent lidocaine
[7] = IV Lidocaine; neuropathic pain; cited from earlier work
[8] = Phase I pharmacokinetic clinical trial: TAD vs IVAD of cefazolin and metronidazole (TISF and serum); conditions: for AUC / Cmax: human, in vivo
[9] = IVAD 500 mg; abdominal wall surgery; cited from earlier work
[10] = human, in vivo
[11] = 8 of 10 obese subjects and 3 of 10 normal controls; cited from earlier work
[12] = dilute drug after subcutaneous tumescent infiltration
[13] = after vs before tumescent lidocaine exposure
[14] = post-op tumescent lidocaine exposure, single tests T3, T4, Patient 1
[15] = 20 ml subcutaneous TI, 6 of 6 subjects, 6 days

Nc1nc2c(ncn2COCCO)c(=O)[nH]1 [Acyclovir]
clinically significant adverse effects ([1]; in vivo, sc): without any clinically significant adverse effects
ecchymosis ([1]; in vivo, sc): no ecchymosis
local tenderness upon palpation ([1]; in vivo, sc): no local tenderness
duration of elimination of acute zoster pain (Herpes zoster): at least 12 hours

Cc1nnc(SCC2=C(C(=O)O)N3C(=O)[C@@H](NC(=O)Cn4cnnn4)[C@H]3SC2)s1 [Cefazolin]
Tmax (clinical): 8 to 12 h
MIC [2]: 125 to 250 µg/mL (≈ 0.275 to 0.55 mM)
adverse local or systemic effects ([3]; in vivo, sc): no adverse local or systemic effects

CCN(CC)CC(=O)Nc1c(C)cccc1C [Lidocaine]
MIC [2]: ~5000 µg/mL (≈ 21.3 mM)
MIC ([2]; read-out: MIC end point): 5000 µg/mL (≈ 21.3 mM)
MRSA survival at test concentration (MBC test) ([4]; Day 1, 1,000 mg/L, MRSA Inoculum 4.7 × 10^5 CFU/ml): +
MRSA survival at test concentration (MBC test) ([4]; Day 2, 1,000 mg/L, MRSA Inoculum 4.4 × 10^5 CFU/ml): +
MRSA survival at test concentration (MBC test) ([4]; Day 2, 5,000 mg/L, MRSA Inoculum 4.4 × 10^5 CFU/ml): +
MRSA survival at test concentration (MBC test) ([4]; Day 2, 10,000 mg/L, MRSA Inoculum 4.4 × 10^5 CFU/ml): 0
MBC ([4]; Staphylococcus aureus, 48 h, read-out: MBC end point): 10000 µg/mL (≈ 42.7 mM)
adverse local or systemic effects [3, 12]: no adverse local or systemic effects
concentrations that consistently inhibit in-vitro platelet aggregation (platelet aggregation; aggregation induced by ADP, epinephrine and collagen): ≥ 0.5 mg/mL
systemic concentrations with no effect on platelet aggregation (platelet aggregation; safe systemic concentrations): ≤ 6 micrograms/ml
duration of routine local anesthesia [5]: ~2 h
Average Bleeding Area (BA) (platelet function; after tumescent lidocaine exposure (Control BA = 541)): Lidocaine BA = 759
Average Bleeding Time (BT) (platelet function; after tumescent lidocaine exposure (Control BT = 6)): Lidocaine BT = 5.75
change in Average Bleeding Time (BT) (platelet function; [13]): essentially no change
increase in Average Bleeding Area (BA) (platelet function; [13]): 40%
Bleeding Area BA (platelet function; [14]): 791.81 and 726.03
Bleeding Time BT × 2 (platelet function; [14]): 10 and 13
duration of therapeutic serum lidocaine concentrations [6]: ≥ 12 h
mean serum lidocaine concentration at complete analgesia [7]: 3.79 ± 1.00 µg/mL

Cc1ncc([N+](=O)[O-])n1CCO [Metronidazole]
AUC∞ in TISF after TAD, times greater than in serum after IVAD ([8]; 500 mg TAD vs 500 mg IVAD): 8.1 times
AUC ([8]; 500 mg, Table 15B, Abdomen, TISF, TAD, 413 mg/L, with cefazolin): 1030 µg·h/mL
AUC ([8]; 500 mg, Table 15B, Abdomen, serum, IVAD, with cefazolin): 127 µg·h/mL
AUC ([8]; 500 mg, Table 15B, Abdomen, serum, TAD, 413 mg/L, with cefazolin): 81 µg·h/mL
Cmax ([8]; 500 mg, Cmax in tumescent interstitial fluid, TAD solution containing 500 mg of metronidazole): 370000 ng/mL
Cmax ([8]; 500 mg, Cmax, Table 15B, Abdomen, TISF, TAD, 413 mg/L, with cefazolin): 160000 ng/mL
Cmax ([8]; 500 mg, Cmax, Table 15B, Abdomen, serum, IVAD, with cefazolin): 14000 ng/mL
Cmax ([8]; 500 mg, Cmax, Table 15B, Abdomen, serum, TAD, 413 mg/L, with cefazolin): 4800 ng/mL
AUC ([8]; 600 mg, Table 16B, Abdomen, serum, TAD, 172 mg/L, TAD dose 600 mg): 81 µg·h/mL
Cmax ([8]; 600 mg, Cmax, Table 16B, Abdomen, TISF, TAD, 172 mg/L, TAD dose 600 mg): 160000 ng/mL
Cmax ([8]; 600 mg, Cmax, Table 16B, Abdomen, serum, IVAD dose 600 mg): 14000 ng/mL
Cmax ([8]; 600 mg, Cmax, Table 16B, Abdomen, serum, TAD, 172 mg/L, TAD dose 600 mg): 4800 ng/mL
AUC ([8]; Table 16B, Abdomen, TISF, TAD + IVAD, 200 mg/L, TAD dose 400 mg, IVAD dose 200 mg): 1130 µg·h/mL
AUC ([8]; Table 16B, Abdomen, serum, TAD + IVAD, 200 mg/L, TAD dose 400 mg, IVAD dose 200 mg): 117 µg·h/mL
Cmax ([8]; Cmax, Table 16B, Abdomen, TISF, TAD + IVAD, 200 mg/L, TAD dose 400 mg, IVAD dose 200 mg): 150000 ng/mL
Cmax ([8]; Cmax, Table 16B, Abdomen, serum, TAD + IVAD, 200 mg/L, TAD dose 400 mg, IVAD dose 200 mg): 5900 ng/mL
Tmax (clinical): 10 to 12 h
adverse local or systemic effects ([3]; in vivo, sc): no adverse local or systemic effects
concentration in subcutaneous fat [9]: 600 to 1700 ng/mL
mean Tmax (time of Cmax in serum) [10]: 11

CO[C@@]1(NC(=O)Cc2cccs2)C(=O)N2C(C(=O)O)=C(COC(N)=O)CS[C@@H]21 [cefoxitin]
subcutaneous bioavailability by IVAD, times less than by TAD ([8]; 10×16, for a significant proportion of patients): approximately 160 times
subcutaneous bioavailability (AUC) of free drug after IVAD, times less than serum bioavailability [11]: 10 times

CNC[C@H](O)c1ccc(O)c(O)c1 [epinephrine]
adverse local or systemic effects [3, 12]: no adverse local or systemic effects

Gentamicin
ecchymosis [1, 15]: no ecchymosis
local tenderness upon palpation [1, 15]: no local tenderness
stinging upon injection ([1]; 20 ml subcutaneous TI, acyclovir 1 gm in 1130 ml, gentamicin 80 mg in 1110 ml tumescent lidocaine solution, 6 of 6 subjects): no stinging
clinically significant adverse effects ([1]; injected subcutaneously in a dilute tumescent solution): without any clinically significant adverse effects
